Source: US11771738B2 (Zoetis Services LLC, priority 2018, dated 2023)
Like-named read-outs stand apart in the source and are kept apart here.

Assays:
Format in all cases: cell-based
[1] = tested on: microfilariae of Dirofilaria immitis; assay: Dirofilaria immitis, Microfilaria (DiMf) In Vitro Assay; details: Dirofilaria immitis, 72 h, read-out: DiMf MED, Minimum Effective Dose, D. immitis microfilariae motility, in vitro
D. immitis L4 larvae = assay: Dirofilaria immitis, L4 Stage (DiL4) In Vitro Assay; details: for minimal effective concentration: Dirofilaria immitis, 72 h, read-out: DiL4 MED, Minimum Effective Dose, D. immitis L4 larvae motility, in vitro; for DiMf/DiL4: larval stage selectivity, ratio of DiMf MED to DiL4 MED
[2] = tested on: third stage larvae of Haemonchus contortus; assay: Haemonchus contortus, Larvae Stage 3 (HcL3) In Vitro Assay; details: Haemonchus contortus, 96 h
[3] = read-out: HcL3 MED, Minimum Effective Dose, H. contortus third stage larvae, approximately 96 hours

| Structure (SMILES) | minimal effective concentration [1] | minimal effective concentration (D. immitis L4 larvae) | DiMf/DiL4 (D. immitis L4 larvae) | minimal effective concentration [2, 3] | minimal effective concentration ([2]; read-out: HcL3 MED, Haemonchus contortus third stage larvae in vitro, class mark appended to the Ex # in Table 3) | minimal effective concentration ([2]; read-out: HcL3 MED, approximately 96 hours incubation, multiple-resistant field isolate) |
| --- | --- | --- | --- | --- | --- | --- |
| CCN(CC)C(c1ccc(C[C@H]2OC(=O)[C@H](CC(C)C)N(C)C(=O)[C@@H](C)OC(=O)[C@H](CC(C)C)N(C)C(=O)[C@@H](Cc3ccccc3)OC(=O)[C@H](CC(C)C)N(C)C(=O)[C@@H](C)OC(=O)[C@H](CC(C)C)N(C)C2=O)cc1)c1ccc(F)c(F)c1 (stereo partly drawn) [Example 2-36, (3S,6R,9S,12R,15S,18R,21S,24R)-6-benzyl-18-(4-((diethylamino)(3,4-difluorophenyl)methyl)benzyl)-3,9,15,21-tetraisobutyl-4,10,12,16,22,24-hexamethyl-1,7,13,19-tetraoxa-4,10,16,22-tetraazacyclotetracosan-2,5,8,11,14,17,20,23-octaone] | 0.03 µM | 0.0002 µM | 150 | 1 µM | – | – |
| CC(C)C[C@H]1C(=O)O[C@H](Cc2ccc(Cc3ccc4cn[nH]c4c3)cc2)C(=O)N(C)[C@@H](CC(C)C)C(=O)O[C@H](C)C(=O)N(C)[C@@H](CC(C)C)C(=O)O[C@H](Cc2ccccc2)C(=O)N(C)[C@@H](CC(C)C)C(=O)O[C@H](C)C(=O)N1C [Example 4-18, (3S,6R,9S,12R,15S,18R,21S,24R)-6-(4-((1H-indazol-6-yl)methyl)benzyl)-18-benzyl-3,9,15,21-tetraisobutyl-4,10,12,16,22,24-hexamethyl-1,7,13,19-tetraoxa-4,10,16,22-tetraazacyclotetracosan-2,5,8,11,14,17,20,23-octaone] | 0.05 µM | 0.001 µM | 50 | > 10 µM | – | – |
| CC(C)C[C@H]1C(=O)O[C@H](Cc2ccc(Cc3cc(C4CC4)no3)cc2)C(=O)N(C)[C@@H](CC(C)C)C(=O)O[C@H](C)C(=O)N(C)[C@@H](CC(C)C)C(=O)O[C@H](Cc2ccc(Cc3cc(C4CC4)no3)cc2)C(=O)N(C)[C@@H](CC(C)C)C(=O)O[C@H](C)C(=O)N1C [Example 3-284, (3S,6R,9S,12R,15S,18R,21S,24R)-6,18-bis(4-((3-cyclopropylisoxazol-5-yl)methyl)benzyl)-3,9,15,21-tetraisobutyl-4,10,12,16,22,24-hexamethyl-1,7,13,19-tetraoxa-4,10,16,22-tetraazacyclotetracosan-2,5,8,11,14,17,20,23-octaone] | 0.1 µM | 0.0005 µM | 200 | > 10 µM | – | – |
| CC(C)C[C@H]1C(=O)O[C@H](Cc2ccc([C@@H](C)c3nccs3)cc2)C(=O)N(C)[C@@H](CC(C)C)C(=O)O[C@H](C)C(=O)N(C)[C@@H](CC(C)C)C(=O)O[C@H](Cc2ccc([C@@H](C)c3nccs3)cc2)C(=O)N(C)[C@@H](CC(C)C)C(=O)O[C@H](C)C(=O)N1C [Example 3-291, (3S,6R,9S,12R,15S,18R,21S,24R)-3,9,15,21-tetraisobutyl-4,6,10,16,18,22-hexamethyl-12,24-bis(4-((R)-1-(thiazol-2-yl)ethyl)benzyl)-1,7,13,19-tetraoxa-4,10,16,22-tetraazacyclotetracosan-2,5,8,11,14,17,20,23-octaone] | 0.0003 µM | 0.0001 µM | 3 | 0.3 µM | < 1 µM | ≤ 1 µM |
